Series [1] has as its target T1, B1R (Homo sapiens, UniProt P46663).
T1 sequence (P46663 1-353): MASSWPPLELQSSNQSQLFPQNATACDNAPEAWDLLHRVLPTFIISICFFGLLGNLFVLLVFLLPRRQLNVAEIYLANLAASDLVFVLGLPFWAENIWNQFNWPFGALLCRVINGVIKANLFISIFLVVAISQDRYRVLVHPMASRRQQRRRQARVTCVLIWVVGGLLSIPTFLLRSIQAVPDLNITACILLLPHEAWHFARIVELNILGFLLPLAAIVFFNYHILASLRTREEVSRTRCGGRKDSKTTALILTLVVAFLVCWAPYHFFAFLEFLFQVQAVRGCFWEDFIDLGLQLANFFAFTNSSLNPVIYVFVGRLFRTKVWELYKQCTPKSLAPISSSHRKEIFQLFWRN
Briefly: Competitive binding assay with 3H radioligand on CHO-K1 cell membranes over-expressing human B1R. On the set-up: purchased Perkin Elmer Inc., Waltham, Mass; ES-091-M400UA; host or cells: CHO-K1 cells over-expressing human B1R (membrane preparation). The protocol:
The ability of the peptide and small molecule B1R targeting compounds to bind to B1R was assessed in competitive binding assay as described below.
Preparation of Cell Membranes: Ready to use cell membranes (12.5 μg/μL) from CHO-K1 cells over-expressing human B1R were obtained from Perkin Elmer Inc., Waltham, Mass. (cat. no. ES-091-M400UA). Binding using cell membranes from HEK293T::GFP::hB1R (from Example 3) was also tested. In the latter case, the membranes were prepared as follows: 90% confluent cells grown in large flask, T225, were detached and pelleted in a 50 mL conical tube using centrifuge at 1,200 rpm for 5 minutes. Afterward, cells were re-suspended in 20-30 mL of cold 50 mM Tris-HCl pH 7.4. Ice cold cells were disrupted for 15 seconds at 15,000 rpm with a Polytron PT3100 (Kinematica AG, Lucerne, Switzerland). The solution was aliquoted and centrifuged at 4° C. at 17,000×g for 30 minutes. The supernatant was discarded, and then the pellet was dissolved in 1-2 mL of cold salt solution containing 50 mM Tris-HCl pH 7.4 and 100 mM NaCl and incubated for 1 hour on ice. The cell membranes were pelleted by centrifugation at 4° C. at 17,000×g for 30 minutes and resuspended in 200-600 μL of 50 mM Tris-HCl pH 7.4. The cell membrane extract was stored at −80° C. Protein concentration was determined by Bradford assay (cat. no. R1271, Fermentas, Thermo Fisher Scientific, Burlington, ON). 50 ug of cell membranes per well was used for the competitive binding assay. […] Radio-labelled control was H-3 labelled [Leu^9,des-Arg^10] kallidin obtained either from American Radiolabelled Chemicals Inc, St. Louis, Mo.
Competitive Binding Assays: Assays were performed using 96-well MultiScreenHTS with glass fiber filter and PVDF support obtained from Millipore Corp, Billerica, Mass. (cat. no. MSFB N6B, lot no. R8AN42424). Wells of the MultiScreen plate were pre-soaked with 0.5% of cold Poly(ethyleneimine) (PEI) (cat. no. P3143, Sigma-Aldrich, St. Louis, Mo.) for 30 minutes. Afterward, wells were washed once with 50 mM of Tris-HCl pH 7.4. Total volume per wells was 200 μL. A fixed concentration of the hot radioligand (1, 3, 5 or 12.5 nM depending on the radioligand; see Table 5) was incubated with progressively higher concentrations (10^−11 to 10^−4 M) of the non-radioactive competitor of interest in the presence of cell membranes (50 μg/well) and the assay buffer (50 mM Tris-HCl pH 7.4, 5 mM MgCl2). The MultiScreen plate was then incubated at 27° C. for 15 minutes with agitation at 300 rpm. The assay was stopped by suctioning the reaction solution through the bottom PVDF membrane filter and discarded. The membranes were washed 7× with 150 μL/well of cold 50 mM Tris-HCl pH 7.4. Radioactivity was counted using 1450 MicroBeta TriLux—Microplate Scintillation and Luminescence Counter (Perkin Elmer Inc., Shelton, Conn.).

A short description of series [2]: in vivo. The following applies: NODSCID IL2RKO, mouse, iv, total radioactivity. The protocol:
Tumour Implantation: Imaging and biodistribution experiments were performed using NODSCID IL2RKO mice. Each cage, equipped with enrichments, contained three or four mice. The mice were maintained and the experiments were conducted in accordance with the guidelines established by Canadian Council on Animal Care and approved by Animal Ethics Committee of the University of British Columbia. Mice were housed under pathogen-free conditions and kept on twelve hour light and twelve hour dark cycle in the Animal Research Centre, British Columbia Cancer Research Centre, Vancouver, Canada.
Mice were anesthetised briefly with 2.5% isoflurane in 2.0 L/min of oxygen during cell implantation. After wiping the skin surrounding the injection site with an alcohol prep pad, a 31-Gauge needle was used to inject 10^7 HEK293T::GFP and HEK293T::hB1R cells in matrigel (1:1) on the back of the mouse. Imaging was performed once the tumour lump was visible. Tumour size was measured by CT and calculated using the ellipsoid formula: V^3mm=width×length×thickness×0.524.
PET/CT Imaging: Each tumour-bearing mouse was injected with ˜3.7 MBq of Ga-68 labelled Peptide 3 through the tail vein. The mice were imaged using the BC Cancer Agency Inveon microPET/CT scanner that has a 1.3 mm spatial resolution and a high sensitivity. Briefly, a localization CT scan was first obtained using 3 overlapping positions to cover the entire mouse. This CT scan was used for attenuation and scatter correction after segmentation for reconstructing the PET images. A dynamic acquisition was then performed for 60 minutes, with the mouse under isoflurane sedation. The animals were kept warm by a monitoring system with an integrated heating pad and physiological acquisition system. At the end of the acquisition, the mice were euthanized, and major organs were collected, weighed, and counted to determine the % injected dose per gram of tissue (% ID/g). The images were reconstructed using OSEM/3DMAP iterative reconstruction, and representative images of Ga-68 labelled Peptide 3 at 1 h post-injection are shown in FIG. 4.

Series [3] concerns HEK-293 and HEK-293/BKRB1 tumours. As to the kind of experiment: Biodistribution of Ga-68 Peptide 12 in tumour-bearing mice. The conditions noted are these: 1 h post-injection. The class given is in vivo, mouse. On the set-up: Biodistribution Spleen Average / Biodistribution Liver Average / Biodistribution Adrenal glands Average / Biodistribution Kidney Average / Biodistribution Muscle Average / Biodistribution Brain Average / Biodistribution Blood Average / Biodistribution Fat Average: unit not given here. An excerpt:
Peptide 12 is an […] version of Peptide 3 that was developed by substituting the C-terminal Leu residue with a D-Phe residue.

Where [4] appears, read: Hot 12.5 nM BK-AG-ARC, CHO-K1 membranes, individual assays, read-out: Ki.
Where [5] appears, read: average of individual competitive binding assays, read-out: Affinity Ki (nM) Average.

Where “and” joins values, the source holds several entries; their conditions need not be identical. Equal entries are not always repeated. Where two headings read alike, the source gives them in different places. Where a SMILES comes first, the peptide text is derived from it. [ ]: non-standard residue; d: D form. The star is where a group is joined. DOTA = O=C(O)CN1CCN(CC(=O)O)CCN(CC(=O)*)CCN(CC(=O)O)CC1; Hyp = O=C(O)[C@@H]1C[C@@H](O)CN1; Cha = N[C@@H](CC1CCCCC1)C(=O)O; PEG2 = NCCOCCOCCC(=O)O

Here are results for six compounds from patent US10039846B2, “Compositions targeting bradykinin receptor B1 for medical imaging of cancer and other disorders” (BRITISH COLUMBIA CANCER AGENCY BRANCH, priority 2012, dated 2018).

For orientation: Ki means the dissociation constant of the complex between target and ligand, obtained from inhibition or displacement. `Cc1ccc(S(=O)(=O)N2c3ccccc3NC(=O)[C@H]2CC(=O)NCCc2ccc(NCCF)cc2)cc1` [Compound 6]: the Ki in series [1] (setting [4]) and in series [1] (setting [5]) was 1010 nM in each case.
Consider `Cc1ccc(S(=O)(=O)N2c3ccccc3NC(=O)[C@H]2CC(=O)Nc2ccc(N3CCN(CCF)CC3)cc2)cc1` [Compound 7], for which the Ki in series [1] (setting [4]) was 113 nM and 39.5 nM and 260 nM; in series [1] (Hot 12.5 nM BK-ANT-ARC, CHO-K1 membranes, individual assays, read-out: Ki) it was 20.7 nM; in series [1] (setting [5]), 108 nM.
As to `Cc1ccc(S(=O)(=O)N2c3ccccc3NC(=O)[C@H]2CC(=O)NCc2ccc(NCCF)cc2)cc1` [Compound 8], the inhibition constant (Ki) in series [1] (setting [4]) and in series [1] (setting [5]) was 6920 nM in each case.
For the compound `COc1cc(C)c(S(=O)(=O)N(C)CCOCC(=O)N2CCC(C3CCN(CCF)CC3)CC2)c(C)c1` [Compound 15], the Ki in series [1] (Hot 4.5 nM BK-ANT-ARC, CHO-K1 membranes, individual assays, read-out: Ki) stood at 0.81 nM; in series [1] (setting [5]) it was 0.81 nM.
In general, tissue uptake refers to the share of the injected amount in each gram of the tissue. Turning to `CC(C)C[C@H](NC(=O)[C@@H]1CCCN1C(=O)[C@H](CO)NC(=O)[C@H](CC1CCCCC1)NC(=O)CNC(=O)[C@@H]1C[C@@H](O)CN1C(=O)[C@@H]1CCCN1C(=O)[C@H](CCCNC(=N)N)NC(=O)[C@H](CCCCN)NC(=O)CCOCCOCCNC(=O)CN1CCN(CC(=O)O)CCN(CC(=O)O)CCN(CC(=O)O)CC1)C(=O)O` [Ga-68 Peptide 3, ^68Ga-DOTA-PEG2-Lys-Arg-Pro-Hyp-Gly-Cha-Ser-Pro-Leu, metal not drawn] ({DOTA-PEG2}-KRP[Hyp]G[Cha]SPL-OH), the tissue uptake at 1 h in series [2] (3.7 MBq, % ID/g Blood Average) came out at 0.26 %ID/g; in series [2] (3.7 MBq, % ID/g Bone Average), 0.34 %ID/g; in series [2] (3.7 MBq, % ID/g Brain Average), 0.03 %ID/g; in series [2] (3.7 MBq, % ID/g Colon Average), 0.34 %ID/g; in series [2] (3.7 MBq, % ID/g Fat Average) it was 0.12 %ID/g; in series [2] (3.7 MBq, % ID/g Heart Average), 0.19 %ID/g. Besides, the tissue uptake at 1 h is 1.32 %ID/g in series [2] (3.7 MBq, % ID/g LEFT Tumour (B1R) Average); 5.14 %ID/g in series [2] (3.7 MBq, % ID/g Left Kidney Average); 0.16 %ID/g in series [2] (3.7 MBq, % ID/g Liver Average); 0.43 %ID/g in series [2] (3.7 MBq, % ID/g Lungs Average); 0.11 %ID/g in series [2] (3.7 MBq, % ID/g Muscle Average); 0.13 %ID/g in series [2] (3.7 MBq, % ID/g Pancreas Average). Moreover, the tissue uptake at 1 h in series [2] (3.7 MBq, % ID/g Plasma Average) came out at 0.77 %ID/g; in series [2] (3.7 MBq, % ID/g RIGHT Tumour (GFP) Average), 0.23 %ID/g; in series [2] (3.7 MBq, % ID/g Right Kidney Average) it was 6.79 %ID/g; in series [2] (3.7 MBq, % ID/g Small Intestine Average), 0.2 %ID/g; in series [2] (3.7 MBq, % ID/g Spleen Average), 0.11 %ID/g; in series [2] (3.7 MBq, % ID/g Stomach Average) it was 0.11 %ID/g. The tissue uptake at 1 h in series [2] (% ID/g Tail Average) stood at 0.45 %ID/g.
As for `N=C(N)NCCC[C@H](NC(=O)[C@H](CCCCN)NC(=O)CCCCCNC(=O)CN1CCN(CC(=O)O)CCN(CC(=O)O)CCN(CC(=O)O)CC1)C(=O)N1CCC[C@H]1C(=O)N1C[C@H](O)C[C@H]1C(=O)NCC(=O)N[C@@H](CC1CCCCC1)C(=O)N[C@@H](CO)C(=O)N1CCC[C@H]1C(=O)N[C@H](Cc1ccccc1)C(=O)O` [Ga-68 Peptide 12, ^68Ga-DOTA-Ahx-Lys-Arg-Pro-Hyp-Gly-Cha-Ser-Pro-(D-Phe), metal not drawn], in series [3] (Adrenal glands), the “Biodistribution Adrenal glands Average” value came out at 0.001. For the same compound, in series [3] (Blood), the “Biodistribution Blood Average” value was found to be 0.039. The compound further registered a Biodistribution Bone Average in series [3] (Bone) of 0.093 %ID/g. Further, the “Biodistribution Brain Average” value in series [3] (Brain) came to 0.009. Also, in series [3] (Fat), the “Biodistribution Fat Average” value stood at 0.039. Also, in series [3] (Heart), the Biodistribution Heart Average came out at 0.15 %ID/g. Moreover, the “Biodistribution Kidney Average” value in series [3] (Kidney) came out at 6.436. In series [3] (Large intestine), this compound had a Biodistribution Large intestine Average of 0.149 %ID/g. This compound also had a Biodistribution Left tumour Average in series [3] (Left tumour) of 0.194 %ID/g. Also, in series [3] (Liver), the “Biodistribution Liver Average” value came out at 0.129. In addition, the Biodistribution Lungs Average in series [3] (Lungs) is 0.8 %ID/g. For the same compound, in series [3] (Muscle), the “Biodistribution Muscle Average” value is on record as 0.056. Also, the “Biodistribution Pancreas Average” value in series [3] (Pancreas) is reported as 0.069. In series [3] (Plasma), this compound gave a Biodistribution Plasma Average of 0.473 %ID/g. For the same compound, the “Biodistribution Right tumour Average” value in series [3] (Right tumour, in %ID/g) stood at 7.909. This compound showed a Biodistribution Seminal glands Average in series [3] (Seminal glands) of 0.23 %ID/g. Further, in series [3] (Skin), the Biodistribution Skin Average is 0.223 %ID/g. Moreover, the Biodistribution Small intestine Average in series [3] (Small intestine) was 0.208 %ID/g. The “Biodistribution Spleen Average” value in series [3] (Spleen) amounted to 0.127. In series [3] (Tail), this compound returned a Biodistribution Tail Average of 0.226 %ID/g. Further, the Biodistribution Testes Average in series [3] (Testes) was 0.132 %ID/g.
